Reference: patent US9067920B2, “Compounds useful for inhibiting Chk1” (Eli Lilly and Company, priority 2010, dated 2015)
Where a name gives a salt, the structure may show the parent alone.

How the values were obtained:
[1] = biological target: recombinant Chk2 protein kinase (Homo sapiens, UniProt O96017); test: Chk2 biochemical assay (CHK2/substrate peptide filter binding); conditions: 60 μM ATP, 1.4 nM Chk2 enzyme
Procedure: The effect of compounds on Chk2 biochemical activity can be determined using a CHK2/substrate peptide filter binding assay. In this assay, a synthetic peptide based on the amino acid sequence residues 206-225 of Cdc25C, is used as a phospho-acceptor substrate for recombinant Chk2 protein kinase. Using γ-^33P-ATP as the phospho-donor substrate, Chk2 transfers the radioactive γ-^33phosphate group to the synthetic peptide. The reaction is measured by capturing the peptide substrate on a cation exchange paper filter plate and scintillation counting of emitted beta particles.
The kinase reactions (40 μL reaction volumes) are performed in 96-well V-bottom polystyrene plates. Reactions are initiated with the addition of Chk2 enzyme. […]
Following Chk2 enzyme addition, the reactions are incubated at room temperature for 90 min, and then terminated with the addition of 140 μL of phosphoric acid. […] After sitting for 4 h at room temperature, the radioactivity in the plate is measured using a MicroBeta Trilux microplate scintillation counter (Perkin Elmer).
For IC50 determination, the percent inhibition for each concentration is calculated using the […] from controls run on each plate. […] Absolute IC50 values are calculated from the resulting curve. […]

[2] = system: HT-29 colon tumor xenograft; test: HT-29 tumor xenograft model, subcutaneous administration of Chk1 inhibitor; type: in vivo, nude mice
Procedure: (§1) The ability of Chk1 inhibitors to potentiate tumor killing by DNA damaging agents can be determined in vivo using the Calu-6 lung and HT-29 colon tumor xenograft efficacy models. Calu-6 lung cancer cells are cultured in growth media (MEM with Earle's Balanced Salt Solution with L-glutamine supplemented with 10% (v/v) heat inactivated FBS, 1×MEM non-essential amino acids, 1× sodium pyruvate) and HT-29 colon cancer cells (ATCC) are cultured in growth media, (McCoy's 5A medium supplemented with 10% FBS) and expanded.
(§2) Cells are harvested and washed twice with phosphate buffered saline and 5×10^6 cells (HT-29) or 1×10^6 a cells (Calu-6) in growth media (without serum) are mixed with equal volume of BD Matrigel™ matrix, then injected subcutaneously into the flank of nude mice (CD-1 nu/nu).
At about day 16 after implant ([…]), gemcitabine is formulated fresh in saline daily and administered to animals by intraperitoneal route at 60 mg/kg dose. Twenty four hours later animals are administered the compound of Example 3, in 0.2% Tween-80/0.5% methylcellulose subcutaneously BID. After […], dosing is repeated for three additional cycles (Q4Dx4 with the compound of Example 3 offset+24 hours), Tumor growth inhibition (TGI) is calculated as the percent reduction in mean tumor size of a compound treated group from the mean tumor size of the vehicle-treated control group. Compounds within the scope of the invention are tested in this assay run substantially as above.

[3] = system: HT-29 colon tumor xenograft; test: HT-29 tumor xenograft model, oral administration of Chk1 inhibitor; type: in vivo, nude mice
Procedure: as §1, §2
At about day 16 after implant (150-200 mm^3), gemcitabine is formulated fresh in saline daily and administered to animals by intraperitoneal route at 40 mg/kg dose. Twenty four hours later animals are administered Chk1 compound, in 0.2% Tween-80/0.5% methylcellulose by the oral route MD. After three days of rest, dosing was repeated for three additional cycles (Q5Dx4 with the compound of Example 3 offset+24 hours). Tumor growth inhibition (TGI) is calculated as described in the previous paragraph. Compounds within the scope of the invention are tested in this assay run substantially as above.

Chain of recombinant Chk2 protein kinase (O96017 whole entry, the tested form may be a part): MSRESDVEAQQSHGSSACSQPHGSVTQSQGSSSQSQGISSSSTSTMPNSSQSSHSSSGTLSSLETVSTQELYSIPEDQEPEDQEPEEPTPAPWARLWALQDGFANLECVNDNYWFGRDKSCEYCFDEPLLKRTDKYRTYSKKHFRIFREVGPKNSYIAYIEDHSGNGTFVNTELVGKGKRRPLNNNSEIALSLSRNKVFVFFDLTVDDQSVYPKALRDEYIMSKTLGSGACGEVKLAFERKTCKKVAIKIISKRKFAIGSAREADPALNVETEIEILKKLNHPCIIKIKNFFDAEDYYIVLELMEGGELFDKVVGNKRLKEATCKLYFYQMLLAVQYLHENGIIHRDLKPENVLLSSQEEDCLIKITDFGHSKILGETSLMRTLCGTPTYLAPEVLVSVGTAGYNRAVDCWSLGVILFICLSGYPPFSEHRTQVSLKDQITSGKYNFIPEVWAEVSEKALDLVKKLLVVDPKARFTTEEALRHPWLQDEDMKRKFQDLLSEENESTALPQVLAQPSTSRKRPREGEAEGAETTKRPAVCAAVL

IC50 [1] [nM]	Compound	% TGI at day 38 ([2]; HT29, Example 3 40 mpk subcutaneous BID alone) [%]	anti-tumor activity in combination with gemcitabine ([2]; HT-29 xenograft, subcutaneous BID, gemcitabine 60 mg/kg ip)	increase in tumor growth inhibition over gemcitabine alone ([2]; subcutaneous, stated for HT-29 and Calu-6 models together)	% TGI at day 50 ([3]; HT29, Example 3 30 mpk oral alone) [%]	anti-tumor activity in combination with gemcitabine ([3]; HT-29 xenograft, oral, gemcitabine 40 mg/kg ip)	increase in tumor growth inhibition over gemcitabine alone ([3]; oral, stated for HT-29 and Calu-6 models together)
11	COc1nc(C)ccc1-c1cc(Nc2cncc(O[C@@H]3CCCNC3)n2)[nH]n1 [Example 1, (R)-[5-(2-Methoxy-6-methyl-pyridin-3-yl)-2H-pyrazol-3-yl]-[6-(piperidin-3-yloxy)-pyrazin-2-yl]-amine]	–	–	–	–	–	–
–	COc1nc(C)ccc1-c1cc(Nc2cncc(O[C@@H]3CCCNC3)n2)[nH]n1 [Example 3, (R)-[5-(2-Methoxy-6-methyl-pyridin-3-yl)-2H-pyrazol-3-yl]-[6-(piperidin-3-yloxy)-pyrazin-2-yl]-amine acetic acid salt]	26	excellent dose dependent anti-tumor activity	up to a six-fold increase in tumor growth inhibition over gemcitabine alone	39	excellent dose dependent anti-tumor activity	≤ 2,9 fold
